This passage reports IC50 results from US20240116985A1, “STAPLED PEPTIDES AND METHODS THEREOF” (priority 2020, published 2024).

This assay addresses T1, full-length beta-Catenin (Uniprot ID P35222) (Homo sapiens, UniProt P35222).
T1 construct: 10 nM full-length beta-Catenin (Uniprot ID P35222)
T1 sequence (P35222 1-781): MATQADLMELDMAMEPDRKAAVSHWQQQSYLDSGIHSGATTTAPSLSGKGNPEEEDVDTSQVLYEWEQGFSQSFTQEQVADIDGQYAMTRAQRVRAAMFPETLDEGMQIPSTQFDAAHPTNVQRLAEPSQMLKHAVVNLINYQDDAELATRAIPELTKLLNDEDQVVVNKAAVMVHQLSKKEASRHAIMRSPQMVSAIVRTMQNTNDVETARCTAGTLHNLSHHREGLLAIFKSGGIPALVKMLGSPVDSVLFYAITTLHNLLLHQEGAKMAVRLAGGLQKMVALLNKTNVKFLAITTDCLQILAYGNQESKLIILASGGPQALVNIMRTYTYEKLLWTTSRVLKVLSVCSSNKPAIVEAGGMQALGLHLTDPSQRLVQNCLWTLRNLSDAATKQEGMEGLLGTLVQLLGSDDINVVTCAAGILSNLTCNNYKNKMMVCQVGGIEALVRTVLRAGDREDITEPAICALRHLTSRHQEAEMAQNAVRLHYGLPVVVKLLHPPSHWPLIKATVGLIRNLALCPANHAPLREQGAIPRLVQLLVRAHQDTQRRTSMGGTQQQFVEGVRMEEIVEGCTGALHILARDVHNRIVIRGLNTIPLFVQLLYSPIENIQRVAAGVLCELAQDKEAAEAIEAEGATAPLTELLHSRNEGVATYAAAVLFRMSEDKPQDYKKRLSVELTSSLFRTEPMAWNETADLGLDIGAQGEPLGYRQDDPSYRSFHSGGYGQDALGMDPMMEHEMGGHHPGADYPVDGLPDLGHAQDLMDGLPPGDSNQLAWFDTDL
Description: Fluorescence polarization IC50 (beta-catenin / 5FAM-TCF4 10-53 competition). Format: binding. The conditions noted are these: fluorescence polarization; read-out: beta-Catenin FP IC50. For orientation: Fluorescence polarisation rises when a labelled molecule tumbles more slowly, as on binding a larger partner.

In general, IC50 refers to the concentration that gives 50% inhibition. For `CC(=O)N1CCC[C@]12CC=CCCCC1(CCCC=CCCCOC(=O)N3CC[C@@](C(=O)N[C@@H](Cc4ccsc4)C(=O)N[C@@H](Cc4csc5ccccc45)C(=O)N[C@@H](Cc4c[nH]c5ccccc45)C(N)=O)(C3)NC(=O)[C@H](CC(N)=O)NC(=O)[C@H](Cc3ccccc3)NC(=O)[C@H](C)NC(=O)[C@H](C)NC(=O)[C@H]([C@@H](C)O)NC(=O)[C@H](CC(N)=O)NC1=O)NC(=O)[C@H](CC(C)(C)C)NC(=O)[C@H](CC(=O)O)NC2=O` (stereo partly drawn) [I-2139, Ac-PL3-Asp-Npg-B5-Asn-Thr-Ala-Ala-Phe-Asn-PyrS2-3Thi-BztA-Trp-NH2], the IC50 came to 970 nM.
With `CC(=O)N1CCC[C@]12CC=CCCCC1(CCCC=CCCCOC(=O)N3CC[C@@](C(=O)N[C@@H](Cc4ccsc4)C(=O)N[C@@H](Cc4csc5ccccc45)C(=O)N[C@@H](Cc4c[nH]cn4)C(N)=O)(C3)NC(=O)[C@H](CC(N)=O)NC(=O)[C@H](Cc3ccccc3)NC(=O)[C@H](C)NC(=O)[C@H](C)NC(=O)[C@H]([C@@H](C)O)NC(=O)[C@H](CC(N)=O)NC1=O)NC(=O)[C@H](CC(C)(C)C)NC(=O)[C@H](CC(=O)O)NC2=O` (stereo partly drawn) [I-2140, Ac-PL3-Asp-Npg-B5-Asn-Thr-Ala-Ala-Phe-Asn-PyrS2-3Thi-BztA-His-NH2], the IC50 was 233 nM.
Regarding `CC(=O)N1CCC[C@]12CC=CCCCC1(CCCC=CCCCOC(=O)N3CC[C@@](C(=O)N[C@@H](Cc4ccsc4)C(=O)N[C@@H](Cc4csc5ccccc45)C(=O)N[C@@H](Cc4c[nH]cn4)C(N)=O)(C3)NC(=O)[C@H](CC(N)=O)NC(=O)[C@H](Cc3ccccc3)NC(=O)[C@H](C)NC(=O)[C@H](C)NC(=O)[C@H]([C@@H](C)O)NC(=O)[C@H](CC(N)=O)NC1=O)NC(=O)[C@H](CC(C)(C)C)NC(=O)[C@H](CC(=O)O)NC2=O` (stereo partly drawn) [I-2141, Ac-PL3-Asp-Npg-B5-Asn-Thr-Ala-Ala-Phe-Asn-PyrS2-3Thi-BztA-His-NH2], the IC50 was determined as 310 nM.
Turning to `CC(=O)N1CCC[C@]12CC=CCCCC1(CCCC=CCCCOC(=O)N3CC[C@@](C(=O)N[C@@H](Cc4ccsc4)C(=O)N[C@@H](Cc4csc5ccccc45)C(=O)N[C@@H](C)C(N)=O)(C3)NC(=O)[C@H](CC(N)=O)NC(=O)[C@H](Cc3ccccc3)NC(=O)[C@H](C)NC(=O)[C@H](C)NC(=O)[C@H]([C@@H](C)O)NC(=O)[C@H](CC(N)=O)NC1=O)NC(=O)[C@H](CC(C)(C)C)NC(=O)[C@H](CC(=O)O)NC2=O` (stereo partly drawn) [I-2143, Ac-PL3-Asp-Npg-B5-Asn-Thr-Ala-Ala-Phe-Asn-PyrS2-3Thi-BztA-Ala-NH2], the IC50 was determined as 217 nM.
Under `CC(=O)N1CCC[C@]12CC=CCCCC1(CCCC=CCCCOC(=O)N3CC[C@@](C(=O)N[C@@H](Cc4ccsc4)C(=O)N[C@@H](Cc4csc5ccccc45)C(=O)N[C@@H](Cc4ccccc4)C(N)=O)(C3)NC(=O)[C@H]([C@@H](C)O)NC(=O)[C@H](Cc3ccccc3)NC(=O)[C@H](C)NC(=O)[C@H](C)NC(=O)[C@H]([C@@H](C)O)NC(=O)[C@H](CC(N)=O)NC1=O)NC(=O)[C@H](CC(C)(C)C)NC(=O)[C@H](CC(=O)O)NC2=O` (stereo partly drawn) [I-2144, Ac-PL3-Asp-Npg-B5-Asn-Thr-Ala-Ala-Phe-Thr-PyrS2-3Thi-BztA-Phe-NH2] stands 2020 nM.
In the case of `CC(=O)N1CCC[C@]12CC=CCCCC1(CCCC=CCCCOC(=O)N3CC[C@@](C(=O)N[C@@H](Cc4ccsc4)C(=O)N[C@@H](Cc4csc5ccccc45)C(=O)N[C@@H](Cc4ccccc4)C(N)=O)(C3)NC(=O)[C@H]([C@@H](C)O)NC(=O)[C@H](Cc3ccccc3)NC(=O)[C@H](C)NC(=O)[C@H](C)NC(=O)[C@H]([C@@H](C)O)NC(=O)[C@H](CC(N)=O)NC1=O)NC(=O)[C@H](CC(C)(C)C)NC(=O)[C@H](CC(=O)O)NC2=O` (stereo partly drawn) [I-2145, Ac-PL3-Asp-Npg-B5-Asn-Thr-Ala-Ala-Phe-Thr-PyrS2-3Thi-BztA-Phe-NH2], the IC50 was 2070 nM.
